Test results: patent US6448266B1, “Substituted cyclobutylamine derivatives” (Daiichi Pharmaceutical Co., Ltd., priority 1997, dated 2002)
Converted amounts (≈) assume the structure as drawn. Read-outs that look alike come from different tables or passages of the source.

Legend:
Assay in all cases: Antibacterial activity (MIC), standard method of the Japan Society of Chemotherapy
Assay type in all cases: cell-based
S. flexneli, 2A 5503 = test system: S. flexneli, 2A 5503
Experimental: (§1) The antibacterial activity of each compound of the present invention was measured in accordance with the standard method specified by the Japan Society of Chemotherapy, with the results shown in the following table as MIC values (μg/ml).

Ps. aeruginosa, 32104 = test system: Ps. aeruginosa, 32104
Experimental: as §1

E. coli, NIHJ = test system: E. coli, NIHJ
Experimental: as §1

S. aureus, 209P = test system: S. aureus, 209P
Experimental: as §1

S. aureus, 870307 = test system: S. aureus, 870307
Experimental: as §1

[1] = test system: Str. faecalis, ATCC-19433
Experimental: as §1

S. epidermidis, 56500 = test system: S. epidermidis, 56500
Experimental: as §1

Pr. vulgaris, 08601 = test system: Pr. vulgaris, 08601
Experimental: as §1

Ser. marcescens, 10100 = test system: Ser. marcescens, 10100
Experimental: as §1

Ps. aeruginasa, 32121 = test system: Ps. aeruginasa, 32121
Experimental: as §1

S. pneumoniae, J24 = test system: S. pneumoniae, J24
Experimental: as §1

Str. pyogenes, G-36 = test system: Str. pyogenes, G-36
Experimental: as §1

Pr. mirabilis, IFO-3849 = test system: Pr. mirabilis, IFO-3849
Experimental: as §1

S. maltophilia, IID-1275 = test system: S. maltophilia, IID-1275
Experimental: as §1

[2] = Pseudomonas aeruginosa, read-out: MIC
[3] = Escherichia coli, read-out: MIC
[4] = Staphylococcus aureus, read-out: MIC
[5] = Enterococcus faecalis, ATCC19433, read-out: MIC
[6] = Staphylococcus epidermidis, read-out: MIC
[7] = Proteus vulgaris, read-out: MIC
[8] = Serratia marcescens, read-out: MIC
[9] = Streptococcus pneumoniae, read-out: MIC
[10] = Streptococcus pyogenes, G36, read-out: MIC
[11] = Proteus mirabilis, IFO3849, read-out: MIC
[12] = Stenotrophomonas maltophilia, IID1275, read-out: MIC

Row | Structure (SMILES) | MIC (S. flexneli, 2A 5503; S. flexneli, 2A 5503) | MIC (Ps. aeruginosa, 32104) | MIC (E. coli, NIHJ) | MIC (S. aureus, 209P) | MIC (S. aureus, 870307) | MIC [1] | MIC (S. flexneli, 2A 5503) | MIC (Ps. aeruginosa, 32104; [2]) | MIC (E. coli, NIHJ; [3]) | MIC (S. aureus, 209P; [4]) | MIC (S. aureus, 870307; [4]) | MIC [1, 5] | MIC (S. epidermidis, 56500; [6]) | MIC (Pr. vulgaris, 08601; [7]) | MIC (Ser. marcescens, 10100; [8]) | MIC (Ps. aeruginasa, 32121; read-out: MIC) | MIC (S. pneumoniae, J24; [9]) | MIC (Str. pyogenes, G-36; [10]) | MIC (Pr. mirabilis, IFO-3849; [11]) | MIC (S. maltophilia, IID-1275; [12]) | other results
1 | Cc1c(N2CCC(C3(N)CC(F)C3)C2)c(F)c(N)c2c(=O)c(C(=O)O)cn([C@@H]3C[C@@H]3F)c12 (stereo partly drawn) [Inventive Example 1, 5-Amino-7-[3-(3-amino-1-fluorocyclobutan-3-yl)pyrrolidin-1-yl]-6-fluoro-1-[2-(S)-fluoro-1-(R)-cyclopropyl]-8-methyl-1,4-dihydro-4-oxoguinoline-3-carboxylic acid] | ≦0.003 μg/ml | 0.20 µg/mL (≈ 0.444 µM) | ≦0.003 μg/ml | ≦0.003 μg/ml | 0.013 µg/mL (≈ 0.0289 µM) | 0.025 µg/mL (≈ 0.0555 µM) | – | – | – | – | – | – | – | – | – | – | – | – | – | – | MIC (S. epidermidis, 56500): ≦0.003 μg/ml; MIC (Pr. vulgaris, 08601): 0.013 µg/mL (≈ 0.0289 µM); MIC (Ser. marcescens, 10100): 0.10 µg/mL (≈ 0.222 µM); MIC (Ps. aeruginasa, 32121): 0.05 µg/mL (≈ 0.111 µM); MIC (S. pneumoniae, J24): ≦0.003 μg/ml; MIC (Str. pyogenes, G-36): ≦0.003 μg/ml; MIC (Pr. mirabilis, IFO-3849): 0.025 µg/mL (≈ 0.0555 µM); MIC (S. maltophilia, IID-1275): 0.05 µg/mL (≈ 0.111 µM)
2 | COc1c(N2CCC(C3(N)CC(F)(F)C3)C2)c(F)cc2c(=O)c(C(=O)O)cn([C@@H]3C[C@@H]3F)c12 (stereo partly drawn) [Inventive Example 3, 7-[3-(3-Amino-1,1-difluorocyclobutan-3-yl)pyrrolidin-1-yl]-6-fluoro-1-[2-(S)-fluoro-1-(R)-cyclopropyl]-8-methoxy-1,4-dihydro-4-oxoquinoline-3-carboxylic acid] | – | – | – | – | – | – | 0.025 µg/mL (≈ 0.0533 µM) | 0.78 µg/mL (≈ 1.66 µM) | 0.013 µg/mL (≈ 0.0277 µM) | ≤ 0.003 µg/mL | 0.025 µg/mL (≈ 0.0533 µM) | 0.025 µg/mL (≈ 0.0533 µM) | 0.013 µg/mL (≈ 0.0277 µM) | 0.025 µg/mL (≈ 0.0533 µM) | 0.39 µg/mL (≈ 0.831 µM) | 0.39 µg/mL (≈ 0.831 µM) | 0.006 µg/mL (≈ 0.0128 µM) | 0.006 µg/mL (≈ 0.0128 µM) | 0.1 µg/mL (≈ 0.213 µM) | 0.2 µg/mL (≈ 0.426 µM) | –
3 | Cc1c(N2CCC(C3(N)CC(F)(F)C3)C2)c(F)c(N)c2c(=O)c(C(=O)O)cn([C@@H]3C[C@@H]3F)c12 (stereo partly drawn) [Inventive Example 5, 5-Amino-7-[3-(3-amino-1,1-difluorocyclobutan-3-yl)pyrrolidin-1-yl]-6-fluoro-1-[2-(S)-fluoro-1-(R)-cyclopropyl]-8-methyl-1,4-dihydro-4-oxoguinoline-3-carboxylic acid] | 0.006 µg/mL (≈ 0.0128 µM) | 0.39 µg/mL (≈ 0.833 µM) | 0.006 µg/mL (≈ 0.0128 µM) | ≦0.003 μg/ml | 0.025 µg/mL (≈ 0.0534 µM) | 0.025 µg/mL (≈ 0.0534 µM) | – | – | – | – | – | – | – | – | – | – | – | – | – | – | MIC (S. epidermidis, 56500): ≦0.003 μg/ml; MIC (Pr. vulgaris, 08601): 0.05 µg/mL (≈ 0.107 µM); MIC (Ser. marcescens, 10100): 0.20 µg/mL (≈ 0.427 µM); MIC (Ps. aeruginasa, 32121): 0.20 µg/mL (≈ 0.427 µM); MIC (S. pneumoniae, J24): ≦0.003 μg/ml; MIC (Str. pyogenes, G-36): 0.006 µg/mL (≈ 0.0128 µM); MIC (Pr. mirabilis, IFO-3849): 0.05 µg/mL (≈ 0.107 µM); MIC (S. maltophilia, IID-1275): 0.10 µg/mL (≈ 0.213 µM)
4 | COc1c(N2CCC(C3(N)CC(F)C3)C2)c(F)cc2c(=O)c(C(=O)O)cn([C@@H]3C[C@@H]3F)c12 (stereo partly drawn) [Inventive Example 6, 7-[3-(3-Amino-1-fluoro-cyclobutan-3-yl)-pyrrolidin-1-yl]-6-fluoro-1-[2-(S)-fluoro-1-(R)-cyclopropyl]-8-methoxy-1,4-dihydro-4-oxoquinoline-3-carboxylic acid] | – | – | – | – | – | – | 0.013 µg/mL (≈ 0.0288 µM) | 0.39 µg/mL (≈ 0.864 µM) | ≤ 0.003 µg/mL | ≤ 0.003 µg/mL | 0.025 µg/mL (≈ 0.0554 µM) | 0.025 µg/mL (≈ 0.0554 µM) | 0.006 µg/mL (≈ 0.0133 µM) | 0.025 µg/mL (≈ 0.0554 µM) | 0.1 µg/mL (≈ 0.222 µM) | 0.2 µg/mL (≈ 0.443 µM) | ≤ 0.003 µg/mL | 0.006 µg/mL (≈ 0.0133 µM) | 0.05 µg/mL (≈ 0.111 µM) | 0.2 µg/mL (≈ 0.443 µM) | –
5 | Nc1c(F)c(N2CCC(C3(N)CC(F)C3)C2)c(F)c2c1c(=O)c(C(=O)O)cn2[C@@H]1C[C@@H]1F (stereo partly drawn) [Inventive Example 7, 5-Amino-7-[3-(3-amino-1-fluoro-cyclobutan-3-yl)pyrrolidin-1-yl]-6,8-difluoro-1-[2-(S)-fluoro-1-(R)-cyclopropyl]-1,4-dihydro-4-oxoquinoline-3-carboxylic acid] | – | – | – | – | – | – | ≤ 0.003 µg/mL | 0.1 µg/mL (≈ 0.22 µM) | ≤ 0.003 µg/mL | ≤ 0.003 µg/mL | 0.006 µg/mL (≈ 0.0132 µM) | 0.025 µg/mL (≈ 0.055 µM) | ≤ 0.003 µg/mL | 0.025 µg/mL (≈ 0.055 µM) | 0.05 µg/mL (≈ 0.11 µM) | 0.05 µg/mL (≈ 0.11 µM) | ≤ 0.003 µg/mL | ≤ 0.003 µg/mL | 0.025 µg/mL (≈ 0.055 µM) | 0.05 µg/mL (≈ 0.11 µM) | –
